Assay [1] has as its target Serine/threonine-protein kinase PLK2 (Homo sapiens, UniProt Q9NYY3). Put plainly: Selectivity interaction (Kinase panel (Z-LYTE Assay)) EUB0001632a PLK2. Particulars: at 10 µM.
The test system of assay [2] is Phosphatidylinositol 4,5-bisphosphate 3-kinase catalytic subunit alpha isoform (Homo sapiens), P42336 [C420R]. Put plainly: (§1) Selectivity interaction (Ambit KINOMEscan and KiNATiv profiling in Jurkat cells) EUB0000090b PIK3CA. The format is cell-based. Particulars: at 1 µM.
For assay [3], the system named is Phosphatidylinositol 4,5-bisphosphate 3-kinase catalytic subunit alpha isoform (Homo sapiens), P42336 [H1047L]. The assay is described as §1. Particulars: at 1 µM. The format is cell-based.
Assay [4] concerns Phosphatidylinositol 4,5-bisphosphate 3-kinase catalytic subunit alpha isoform (Homo sapiens), P42336 [H1047Y]. Described as §1. Particulars: at 1 µM. The format is cell-based.
Assay [5] has as its system Phosphatidylinositol 4,5-bisphosphate 3-kinase catalytic subunit alpha isoform (Homo sapiens), P42336 [I800L]. The assay is described as §1. The format is cell-based. Particulars: at 1 µM.
Assay [6] concerns Phosphatidylinositol 4,5-bisphosphate 3-kinase catalytic subunit alpha isoform (Homo sapiens), P42336 [M1043I]. The assay is described as §1. The assay is classed as cell-based. Particulars: at 1 µM.
Assay [7] deals with 5'-AMP-activated protein kinase catalytic subunit alpha-1 (Homo sapiens, UniProt Q13131). Briefly: Selectivity interaction (Ambit KINOMEscan and KiNATiv profiling in Jurkat cells) EUB0000090b PRKAA1. The assay is classed as cell-based. Particulars: at 1 µM.
Assay [8] has as its system Tyrosine-protein kinase ABL1 (Homo sapiens), P00519 [M351T]. Particulars: at 10 µM.
Assay [9] addresses Transient receptor potential cation channel subfamily M member 6 (Homo sapiens) (UniProt Q9BX84). Put plainly: Selectivity interaction (KinomeScan (DiscoverX)) EUB0000229b TRPM6. Particulars: at 10 µM.
Assay [10] has as its system Hepatocyte growth factor receptor (Homo sapiens), P08581 [M1250T]. Put plainly: (§2) Selectivity interaction (KinomeScan (DiscoverX)) EUB0000311b MET. Particulars: at 1 µM.
Assay [11] has as its system Hepatocyte growth factor receptor (Homo sapiens), P08581 [Y1235D]. The description is as §2. Particulars: at 1 µM.
The target of assay [12] is T1, Hepatocyte growth factor receptor (Homo sapiens, UniProt P08581). The description is as §2. Particulars: at 1 µM.
The target of assay [13] is T2, Serine/threonine-protein kinase Nek1 (Homo sapiens) (UniProt Q96PY6).
T2 sequence (whole entry): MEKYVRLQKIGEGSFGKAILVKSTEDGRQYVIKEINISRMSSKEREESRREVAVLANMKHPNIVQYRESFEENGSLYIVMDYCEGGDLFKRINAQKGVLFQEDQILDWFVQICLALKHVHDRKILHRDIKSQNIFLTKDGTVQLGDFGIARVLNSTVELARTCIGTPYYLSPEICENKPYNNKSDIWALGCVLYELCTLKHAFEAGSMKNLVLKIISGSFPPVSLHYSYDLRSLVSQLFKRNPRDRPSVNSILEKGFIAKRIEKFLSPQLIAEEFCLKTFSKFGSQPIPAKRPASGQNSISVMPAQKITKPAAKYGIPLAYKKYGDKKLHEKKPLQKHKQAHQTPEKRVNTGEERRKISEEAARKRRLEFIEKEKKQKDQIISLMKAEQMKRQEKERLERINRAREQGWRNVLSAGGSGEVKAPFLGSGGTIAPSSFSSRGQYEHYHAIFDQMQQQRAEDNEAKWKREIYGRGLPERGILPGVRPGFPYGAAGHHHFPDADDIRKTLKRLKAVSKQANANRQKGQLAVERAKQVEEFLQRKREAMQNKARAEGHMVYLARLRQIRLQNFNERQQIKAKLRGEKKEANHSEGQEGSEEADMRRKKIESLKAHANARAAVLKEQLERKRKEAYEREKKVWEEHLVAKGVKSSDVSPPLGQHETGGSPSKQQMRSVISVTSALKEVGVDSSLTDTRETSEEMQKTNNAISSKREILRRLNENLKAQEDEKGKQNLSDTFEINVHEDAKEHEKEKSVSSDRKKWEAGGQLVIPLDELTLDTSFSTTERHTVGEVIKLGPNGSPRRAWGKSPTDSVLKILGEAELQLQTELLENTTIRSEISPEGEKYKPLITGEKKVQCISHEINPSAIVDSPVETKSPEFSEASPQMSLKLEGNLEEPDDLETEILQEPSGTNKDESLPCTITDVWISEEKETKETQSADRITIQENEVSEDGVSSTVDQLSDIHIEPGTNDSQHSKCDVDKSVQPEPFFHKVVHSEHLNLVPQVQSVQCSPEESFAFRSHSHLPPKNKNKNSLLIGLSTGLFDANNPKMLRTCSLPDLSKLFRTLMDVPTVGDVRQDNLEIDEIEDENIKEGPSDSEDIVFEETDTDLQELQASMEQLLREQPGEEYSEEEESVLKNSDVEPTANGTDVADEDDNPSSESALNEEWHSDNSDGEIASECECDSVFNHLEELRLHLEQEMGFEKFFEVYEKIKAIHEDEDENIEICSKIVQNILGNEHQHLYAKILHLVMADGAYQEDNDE
Put plainly: Selectivity interaction (KinomeScan (DiscoverX)) EUB0001079a NEK1. Particulars: at 1 µM.

The next assay deals with Mu-type opioid receptor (Homo sapiens, UniProt P35372). Put plainly: Selectivity interaction (Panel of kinases, GPCRs, ion channels and transporters (enzymatic assay)) EUB0000266bCl OPRM1.
Assay [14] deals with Tyrosine-protein kinase Yes (Homo sapiens) (UniProt P07947). Put plainly: Selectivity interaction (Kinase panel (Invitrogen)) EUB0000639a YES1. Particulars: at 200 nM.
The target of assay [15] is T1, Hepatocyte growth factor receptor. Put plainly: Selectivity interaction (Millipore kinase profiler) EUB0000124b MET. Particulars: at 10 µM.
The target of assay [16] is T3, Muscarinic acetylcholine receptor M2 (Homo sapiens) (UniProt P08172).
T3 sequence (whole entry): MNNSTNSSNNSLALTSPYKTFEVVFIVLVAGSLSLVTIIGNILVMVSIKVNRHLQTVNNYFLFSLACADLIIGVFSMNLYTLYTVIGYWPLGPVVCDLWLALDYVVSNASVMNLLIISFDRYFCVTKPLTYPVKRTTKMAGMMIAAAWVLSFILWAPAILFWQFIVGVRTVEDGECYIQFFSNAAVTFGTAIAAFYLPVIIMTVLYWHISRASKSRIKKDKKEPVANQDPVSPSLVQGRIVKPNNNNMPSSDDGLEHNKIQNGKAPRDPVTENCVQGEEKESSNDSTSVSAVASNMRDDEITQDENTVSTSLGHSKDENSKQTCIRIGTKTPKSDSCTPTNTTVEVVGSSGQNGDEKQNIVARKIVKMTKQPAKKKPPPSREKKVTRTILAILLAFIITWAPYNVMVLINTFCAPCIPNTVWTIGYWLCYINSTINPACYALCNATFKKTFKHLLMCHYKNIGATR
Put plainly: Selectivity interaction (Panel of kinases, GPCRs, ion channels and transporters (enzymatic assay)) EUB0000223bCl CHRM2.

Assay [17] deals with Ribosomal protein S6 kinase alpha-2 (Homo sapiens) (UniProt Q15349). Briefly: Selectivity interaction (KinomeScan (DiscoverX)) EUB0000092b RPS6KA2. Particulars: at 10 µM.
Assay [18] concerns Tyrosine-protein kinase ABL1 (Homo sapiens), P00519 [Q252H]. Put plainly: Selectivity interaction (KinomeScan (DiscoverX)) EUB0000045b ABL1. Particulars: at 1 µM.
The target of assay [19] is Cyclin-dependent kinase 9 (Homo sapiens, UniProt P50750). Particulars: at 10 µM.

13 compounds from ChEMBL document CHEMBL5465560, “Selectivity Literature for EUbOPEN Chemogenomic Library” (2024) can be followed below.

T1 sequence (P08581 whole entry): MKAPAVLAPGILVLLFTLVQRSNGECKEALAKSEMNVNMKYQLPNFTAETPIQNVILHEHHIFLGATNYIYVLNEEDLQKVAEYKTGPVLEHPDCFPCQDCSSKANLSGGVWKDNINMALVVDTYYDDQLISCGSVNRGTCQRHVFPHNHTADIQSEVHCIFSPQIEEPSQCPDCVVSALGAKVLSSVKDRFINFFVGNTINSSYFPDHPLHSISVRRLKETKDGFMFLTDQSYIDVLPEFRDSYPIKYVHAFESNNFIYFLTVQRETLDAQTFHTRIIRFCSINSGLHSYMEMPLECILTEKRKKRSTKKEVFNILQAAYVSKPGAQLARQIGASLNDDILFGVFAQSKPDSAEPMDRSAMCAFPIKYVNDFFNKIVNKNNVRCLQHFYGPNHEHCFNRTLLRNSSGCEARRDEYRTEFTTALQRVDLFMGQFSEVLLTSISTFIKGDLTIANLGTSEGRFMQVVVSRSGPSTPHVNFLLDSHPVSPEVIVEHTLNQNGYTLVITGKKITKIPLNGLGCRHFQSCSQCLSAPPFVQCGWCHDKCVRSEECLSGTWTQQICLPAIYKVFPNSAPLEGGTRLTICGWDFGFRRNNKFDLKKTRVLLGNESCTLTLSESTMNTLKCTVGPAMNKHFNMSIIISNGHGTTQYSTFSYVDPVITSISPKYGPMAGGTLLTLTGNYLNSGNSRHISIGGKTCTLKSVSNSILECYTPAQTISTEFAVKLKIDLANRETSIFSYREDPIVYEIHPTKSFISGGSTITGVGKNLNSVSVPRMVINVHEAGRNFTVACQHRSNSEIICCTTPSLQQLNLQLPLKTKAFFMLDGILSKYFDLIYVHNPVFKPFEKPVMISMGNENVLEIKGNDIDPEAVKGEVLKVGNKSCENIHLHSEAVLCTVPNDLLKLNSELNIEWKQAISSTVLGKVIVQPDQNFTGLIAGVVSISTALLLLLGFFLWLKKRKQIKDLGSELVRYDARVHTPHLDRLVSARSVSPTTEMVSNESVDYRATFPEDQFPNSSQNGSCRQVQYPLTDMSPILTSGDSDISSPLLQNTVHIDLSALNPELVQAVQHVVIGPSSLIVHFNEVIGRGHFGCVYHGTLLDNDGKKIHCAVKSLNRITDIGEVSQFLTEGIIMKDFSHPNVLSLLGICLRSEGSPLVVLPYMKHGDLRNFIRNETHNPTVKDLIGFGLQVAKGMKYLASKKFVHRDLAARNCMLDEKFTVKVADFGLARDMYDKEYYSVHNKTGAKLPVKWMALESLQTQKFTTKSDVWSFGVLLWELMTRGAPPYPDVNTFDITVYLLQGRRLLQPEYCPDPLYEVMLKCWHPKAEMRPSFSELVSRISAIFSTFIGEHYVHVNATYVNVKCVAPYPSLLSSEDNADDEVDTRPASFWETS
Sequence of Tyrosine-protein kinase Yes (Homo sapiens) (P07947 2-543 limits assumed): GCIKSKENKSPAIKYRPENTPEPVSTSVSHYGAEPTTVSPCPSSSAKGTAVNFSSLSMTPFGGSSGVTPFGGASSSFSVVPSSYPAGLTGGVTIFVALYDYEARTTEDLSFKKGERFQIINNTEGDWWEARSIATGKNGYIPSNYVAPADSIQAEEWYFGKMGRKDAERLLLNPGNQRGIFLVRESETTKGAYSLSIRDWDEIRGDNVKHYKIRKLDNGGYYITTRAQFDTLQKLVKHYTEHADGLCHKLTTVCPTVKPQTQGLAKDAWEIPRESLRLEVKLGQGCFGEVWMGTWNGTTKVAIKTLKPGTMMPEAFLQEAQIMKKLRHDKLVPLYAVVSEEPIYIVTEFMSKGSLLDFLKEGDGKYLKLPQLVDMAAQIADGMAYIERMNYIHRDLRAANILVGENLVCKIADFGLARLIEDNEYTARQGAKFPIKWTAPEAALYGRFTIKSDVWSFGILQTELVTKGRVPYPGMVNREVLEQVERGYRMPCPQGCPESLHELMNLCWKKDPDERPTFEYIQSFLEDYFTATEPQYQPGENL
Sequence of Serine/threonine-protein kinase PLK2 (Q9NYY3 whole entry, looked up, canonical isoform): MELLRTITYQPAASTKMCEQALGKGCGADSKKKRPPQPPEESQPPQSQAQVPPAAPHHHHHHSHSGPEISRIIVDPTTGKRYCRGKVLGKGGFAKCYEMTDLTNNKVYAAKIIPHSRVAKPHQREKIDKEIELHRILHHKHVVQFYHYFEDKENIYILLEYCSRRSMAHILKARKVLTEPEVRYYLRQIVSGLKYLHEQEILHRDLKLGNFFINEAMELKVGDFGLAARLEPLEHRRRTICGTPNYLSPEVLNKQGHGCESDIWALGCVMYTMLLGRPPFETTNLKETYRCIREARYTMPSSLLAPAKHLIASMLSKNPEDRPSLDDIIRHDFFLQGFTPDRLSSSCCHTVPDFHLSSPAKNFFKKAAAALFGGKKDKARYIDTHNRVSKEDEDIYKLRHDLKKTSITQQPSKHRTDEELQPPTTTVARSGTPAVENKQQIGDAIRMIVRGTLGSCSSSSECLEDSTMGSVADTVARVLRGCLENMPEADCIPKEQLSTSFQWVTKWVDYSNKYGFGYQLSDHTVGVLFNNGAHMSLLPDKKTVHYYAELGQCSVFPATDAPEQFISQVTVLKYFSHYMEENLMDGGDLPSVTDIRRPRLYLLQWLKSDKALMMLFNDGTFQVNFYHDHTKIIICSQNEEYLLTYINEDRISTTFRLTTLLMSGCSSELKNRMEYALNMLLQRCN
Sequence of Phosphatidylinositol 4,5-bisphosphate 3-kinase catalytic subunit alpha isoform (Homo sapiens), P42336 [I800L] (P42336 whole entry I800L, canonical isoform): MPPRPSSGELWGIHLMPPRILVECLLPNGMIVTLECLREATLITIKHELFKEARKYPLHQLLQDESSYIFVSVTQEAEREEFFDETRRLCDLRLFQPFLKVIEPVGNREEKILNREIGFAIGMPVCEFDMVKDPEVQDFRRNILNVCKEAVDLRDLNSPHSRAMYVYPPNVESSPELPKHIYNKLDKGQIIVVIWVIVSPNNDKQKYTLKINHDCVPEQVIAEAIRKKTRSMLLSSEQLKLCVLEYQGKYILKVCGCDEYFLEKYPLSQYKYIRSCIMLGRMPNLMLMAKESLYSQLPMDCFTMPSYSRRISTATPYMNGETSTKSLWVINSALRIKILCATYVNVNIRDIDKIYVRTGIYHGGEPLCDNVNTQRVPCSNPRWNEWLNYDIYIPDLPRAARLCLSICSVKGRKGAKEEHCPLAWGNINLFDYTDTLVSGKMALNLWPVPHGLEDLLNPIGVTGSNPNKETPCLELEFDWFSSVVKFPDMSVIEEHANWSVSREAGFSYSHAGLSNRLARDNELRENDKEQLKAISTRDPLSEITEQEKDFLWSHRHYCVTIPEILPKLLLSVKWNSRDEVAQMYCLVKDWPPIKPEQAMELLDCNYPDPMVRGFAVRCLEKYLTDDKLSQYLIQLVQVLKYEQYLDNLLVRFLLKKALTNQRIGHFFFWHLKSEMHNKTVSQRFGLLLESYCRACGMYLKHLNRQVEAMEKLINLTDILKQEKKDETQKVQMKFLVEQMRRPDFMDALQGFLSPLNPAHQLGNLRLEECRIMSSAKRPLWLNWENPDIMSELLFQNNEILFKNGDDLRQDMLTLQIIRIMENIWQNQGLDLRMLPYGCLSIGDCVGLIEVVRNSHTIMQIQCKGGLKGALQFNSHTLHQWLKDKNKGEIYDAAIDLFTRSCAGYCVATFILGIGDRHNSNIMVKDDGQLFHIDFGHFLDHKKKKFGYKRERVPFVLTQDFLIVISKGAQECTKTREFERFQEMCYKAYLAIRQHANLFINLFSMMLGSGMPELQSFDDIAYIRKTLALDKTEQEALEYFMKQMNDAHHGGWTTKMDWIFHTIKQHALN
Sequence of 5'-AMP-activated protein kinase catalytic subunit alpha-1 (Q13131 whole entry, looked up): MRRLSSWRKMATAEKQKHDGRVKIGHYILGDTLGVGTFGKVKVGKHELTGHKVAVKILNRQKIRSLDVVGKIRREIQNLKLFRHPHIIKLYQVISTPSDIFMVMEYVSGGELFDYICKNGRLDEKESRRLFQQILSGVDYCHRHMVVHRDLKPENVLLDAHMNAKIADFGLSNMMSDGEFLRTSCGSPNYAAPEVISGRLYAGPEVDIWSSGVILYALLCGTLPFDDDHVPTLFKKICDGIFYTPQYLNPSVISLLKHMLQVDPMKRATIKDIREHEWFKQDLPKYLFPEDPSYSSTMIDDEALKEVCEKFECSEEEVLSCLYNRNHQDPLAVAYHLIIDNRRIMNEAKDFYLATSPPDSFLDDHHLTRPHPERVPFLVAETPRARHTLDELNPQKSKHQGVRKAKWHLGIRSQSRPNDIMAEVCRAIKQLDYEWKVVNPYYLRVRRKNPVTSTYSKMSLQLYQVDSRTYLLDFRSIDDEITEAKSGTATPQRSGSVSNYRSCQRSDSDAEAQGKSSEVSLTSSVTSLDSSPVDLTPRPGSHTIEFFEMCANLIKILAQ
Sequence of Cyclin-dependent kinase 9 (P50750 whole entry): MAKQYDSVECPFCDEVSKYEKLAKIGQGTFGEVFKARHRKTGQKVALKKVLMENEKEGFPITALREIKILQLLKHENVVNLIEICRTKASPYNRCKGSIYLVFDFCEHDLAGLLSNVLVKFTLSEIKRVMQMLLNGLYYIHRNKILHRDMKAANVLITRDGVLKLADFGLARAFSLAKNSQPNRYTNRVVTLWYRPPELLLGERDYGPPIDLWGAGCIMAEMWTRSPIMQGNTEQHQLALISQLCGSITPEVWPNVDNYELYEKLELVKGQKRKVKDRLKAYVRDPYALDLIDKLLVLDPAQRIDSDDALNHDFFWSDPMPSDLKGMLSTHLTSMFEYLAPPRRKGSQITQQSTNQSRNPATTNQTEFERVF
Sequence of Mu-type opioid receptor (P35372 whole entry): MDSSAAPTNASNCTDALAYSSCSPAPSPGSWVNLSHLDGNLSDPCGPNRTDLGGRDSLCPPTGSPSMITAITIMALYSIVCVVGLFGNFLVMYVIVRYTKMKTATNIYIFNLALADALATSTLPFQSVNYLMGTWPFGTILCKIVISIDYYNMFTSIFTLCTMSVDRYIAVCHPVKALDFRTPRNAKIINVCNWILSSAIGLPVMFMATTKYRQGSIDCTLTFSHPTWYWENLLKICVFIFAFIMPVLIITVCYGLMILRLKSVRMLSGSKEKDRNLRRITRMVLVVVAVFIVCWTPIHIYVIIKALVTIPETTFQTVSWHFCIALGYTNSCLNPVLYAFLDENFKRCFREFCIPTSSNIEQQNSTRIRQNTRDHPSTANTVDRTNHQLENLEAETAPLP

Regarding `Cn1cc(-n2cnc3c(NCc4nc5cc(Cl)c(Cl)cc5[nH]4)nc(N4CCOCC4)nc32)cn1`, the % of control in assay [1] was -0.658%.

For `CN(C)C/C=C/C(=O)Nc1ccc(C(=O)N2CCCC(Nc3ncc(Cl)c(-c4c[nH]c5ccccc45)n3)C2)cc1` (stereo not given), the % of control is 87% in assay [2]; 100% in assay [3]; 95% in assay [4]; 89% in assay [5]; 100% in [6]; 79% in assay [7].

Take `Cc1cc([C@@H](C)Nc2ccccc2C(=O)O)c2nc(N3CCOCC3)cc(=O)n2c1` [AZD-6482]: the % of control in assay [8] came out at 94%.

In assay [9], `COc1cc(N(C)c2ccnc3ccc(C(F)(F)F)cc23)cc(OC)c1OC` returned a % binding of 100%.

On to `CCc1ccccc1C(=O)Nc1n[nH]c2c(C)c(F)c(C3C(C#N)=C(C)N(C)C(C)=C3C#N)cc12` [BAY-3827], for which the % of control was 25% in assay [10], 16% in [11] and 7.3% in assay [12].

Regarding `Nc1cnc(N2CCc3cc(S(=O)(=O)Nc4c(F)cc(Cl)cc4F)cc(N4CCCC4=O)c32)nc1` [TP-020n], the % of control in assay [13] amounted to 46%.

As to `CCn1c(-c2nc3cc(C(=O)N4CCCC(N)C4)ccc3n2C)cc2ccccc21` (stereo not given), at Mu-type opioid receptor, the pXC50 was less than 4 M.

`CC[C@@H]1[C@H](F)C(=O)N[C@@H]1COc1nccc2cc(C(N)=O)c(OC)cc12` [ZIMLOVISERTIB]: the % of inhibition in assay [14] stood at 3.51%.

With `CC(=O)Nc1cccc(-n2c(=O)n(C3CC3)c(=O)c3c(Nc4ccc(I)cc4F)n(C)c(=O)c(C)c32)c1`, the % of control in assay [15] was 150%.

Turning to `COc1cc(C(=O)N2CC[C@@H](O)[C@@H](N)C2)cc2nc(-c3cc4ccccc4n3CC3CC3)n(C)c12`, the pXC50 in assay [16] was less than 4.8 M.

With `CCC(=O)N1CCN(c2ccc(-n3c(=O)ccc4cnc5ccc(-c6cnc7ccccc7c6)cc5c43)cc2C(F)(F)F)CC1`, the % of control in [17] was determined as 100%.

On to `C=CC(=O)Nc1cc(-n2c(=O)ccc3cnc4ccc(-c5ccc(NS(C)(=O)=O)cc5)cc4c32)ccc1C`, for which the % of control in [18] is 95%.

As to `COCC(=O)NC/C=C/c1ccc2ncnc(Nc3ccc(Oc4ccc(C)nc4)c(C)c3)c2c1` [CP-724714], the % of control in assay [19] turned out to be 100%.
